Measured values: patent publication US20210205238A1, “STABILIZED INJECTABLE PHARMACEUTICAL COMPOSITION OF L-EPINEPHRINE” (MERCK PATENT GMBH, priority 2017, published 2021)
Where a name gives a salt, the structure may show the parent alone. One block for each compound: values may come before it.

Tests used:
[1] = senior formulations 1.1 mg/mL, E:S 0.34, pH 3.9, 60° C., 28 days; vs epinephrine base
[2] = HPIC for determination of sodium metabisulfite as sulfite in stored formulations; type: physicochemical; details: after 28 days at 60° C., senior formulation 1.1 mg/mL
Description: Epinephrine formulations were diluted 1:100 (formulations with 1.67 mg/mL Na2S2O5), 1:50 (formulations with 0.95 mg/mL and 0.48 mg/mL Na2S2O5) and 1:25 (formulation with 0.16 mg/mL Na2S2O5) in water containing 0.37% formaldehyde. Chromatographic separation was conducted on a Dionex Ion chromatograph ICS3000. 50 μl sample were applied on a HPIC column (AS4aSC, 4 mm×250 mm Thermo Scientific) using a guard column (AG4aSC, 4 mm×50 mm Thermo Scientific). Chromatographic separation was conducted in Eluent A (1.3 mM sodium hydrogen carbonate and 1.4 mM sodium carbonate in water) at 30° C. over 20 min at a flow rate of 2 mL/min. Conductivity detection with suppressor technology was used at a cell temperature of 35° C.

[3] = sulfonic acid derivative formed by reaction of epinephrine with sodium bisulfite; cited from earlier work

- D-enantiomer formation [1]: significantly reduced
Structure (SMILES): CNC[C@H](O)c1ccc(O)c(O)c1 [epinephrine tartrate]

- sodium metabisulfite starting content degraded ([2]; at E:S=1.2): > 70%
- sodium metabisulfite starting content degraded ([2]; at E:S=3): > 90%
Structure (SMILES): O=S([O-])S(=O)(=O)[O-].[Na+].[Na+] [sodium metabisulfite]

Structure (SMILES): CNCC(c1ccc(O)c(O)c1)S(=O)(=O)O (stereo not shown) [ESA, epinephrine sulfonic acid]
- biological activity [3]: biologically inactive
